Drawing on US6184018A, “β-glucosidase coding sequences and protein from orpinomyces PC-2” (University of Georgia Research Foundation, Inc., priority 1999, dated 2001), this text covers Km and Ki for five molecules.

The test system of series [1] is β-glucosidase from Thermotoga sp. To be noted: Ruthersmith and Daniel (1993), cited from earlier work.
Series [2] has as its system native β-glucosidase of Orpinomyces PC-2. The conditions noted are these: Chen et al. (1994), cited from earlier work.
Series [3] relates to β-glucosidase from T. reesei. The conditions noted are these: Chen et al. (1992), cited from earlier work.
In series [4] the test system is β-glucosidase from Aspergillus nidulans. To be noted: Kwon et al. (1992), cited from earlier work.
For series [5], the target named is β-glucosidase from Aspergillus niger (Aspergillus niger, UniProt A2RAL4). To be noted: read-out: Cellobiose affinity (Km); Hoh et al. (1992); cited from earlier work.
Chain of β-glucosidase from Aspergillus niger (A2RAL4 20-860): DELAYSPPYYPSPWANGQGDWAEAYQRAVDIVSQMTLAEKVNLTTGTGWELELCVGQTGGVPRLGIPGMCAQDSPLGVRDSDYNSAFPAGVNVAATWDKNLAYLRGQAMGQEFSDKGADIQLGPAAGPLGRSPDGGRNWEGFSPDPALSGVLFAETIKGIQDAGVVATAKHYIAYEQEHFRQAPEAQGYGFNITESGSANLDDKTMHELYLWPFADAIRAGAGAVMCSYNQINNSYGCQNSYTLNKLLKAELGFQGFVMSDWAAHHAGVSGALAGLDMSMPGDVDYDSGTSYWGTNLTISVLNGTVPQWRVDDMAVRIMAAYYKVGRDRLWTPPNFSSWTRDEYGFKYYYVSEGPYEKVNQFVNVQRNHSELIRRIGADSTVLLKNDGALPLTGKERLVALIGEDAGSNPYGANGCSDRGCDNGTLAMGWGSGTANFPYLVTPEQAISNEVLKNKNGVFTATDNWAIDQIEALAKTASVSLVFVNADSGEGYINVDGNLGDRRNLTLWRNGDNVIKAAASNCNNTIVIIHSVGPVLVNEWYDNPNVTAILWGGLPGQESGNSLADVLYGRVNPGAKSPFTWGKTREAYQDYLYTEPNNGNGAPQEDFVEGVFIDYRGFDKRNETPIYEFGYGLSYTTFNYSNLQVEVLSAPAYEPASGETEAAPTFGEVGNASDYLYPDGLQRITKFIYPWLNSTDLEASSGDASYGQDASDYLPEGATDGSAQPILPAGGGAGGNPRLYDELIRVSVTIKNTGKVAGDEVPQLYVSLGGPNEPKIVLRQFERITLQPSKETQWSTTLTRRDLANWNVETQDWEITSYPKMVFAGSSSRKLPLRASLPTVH
Series [6] relates to β-glucosidase from Aureobasidium pullulans. To be noted: Saha et al. (1995), cited from earlier work.
The subject of series [7] is β-glucosidase from Clostridium thermocellum. The conditions noted are these: Katayeva et al. (1992); read-out: Cellobiose affinity (Km); cited from earlier work.
In series [8] the test system is β-glucosidase from Sporotrichum thermophile. The conditions noted are these: Bhat et al. (1993), cited from earlier work.
For series [9], the target named is T1, Orpinomyces sp. strain PC-2 β-glucosidase BglA, recombinant, secreted from S. cerevisiae, SEQ ID NO:2 (Orpinomyces sp. PC-2, UniProt Q9UUQ3).
T1 sequence (Q9UUQ3 17-657): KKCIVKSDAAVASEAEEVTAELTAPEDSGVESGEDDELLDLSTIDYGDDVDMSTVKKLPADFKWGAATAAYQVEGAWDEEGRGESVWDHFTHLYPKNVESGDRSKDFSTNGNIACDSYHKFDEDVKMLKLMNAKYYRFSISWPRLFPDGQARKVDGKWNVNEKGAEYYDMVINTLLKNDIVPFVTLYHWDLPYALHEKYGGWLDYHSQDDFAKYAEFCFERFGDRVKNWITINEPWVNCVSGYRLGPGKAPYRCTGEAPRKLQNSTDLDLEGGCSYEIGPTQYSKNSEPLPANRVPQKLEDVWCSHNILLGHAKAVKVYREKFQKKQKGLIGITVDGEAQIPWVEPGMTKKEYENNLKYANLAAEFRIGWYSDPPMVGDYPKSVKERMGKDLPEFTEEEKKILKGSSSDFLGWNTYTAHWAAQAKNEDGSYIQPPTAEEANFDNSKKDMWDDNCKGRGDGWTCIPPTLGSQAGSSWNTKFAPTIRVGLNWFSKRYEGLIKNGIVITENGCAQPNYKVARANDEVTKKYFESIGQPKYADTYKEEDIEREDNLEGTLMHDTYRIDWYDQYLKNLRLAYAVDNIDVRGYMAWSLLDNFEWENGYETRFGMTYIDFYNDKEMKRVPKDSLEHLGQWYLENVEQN
The experiment in a line: Kinetic parameters of purified secreted recombinant BglA (Lineweaver-Burk plots). In kind it is biochemical. The protocol:
(§1) β-Glucosidase (.rho.-nitrophenyl-β-D-glucosidase [.rho.NPGase]) and cellobiase activities were determined by the following standard procedures. With .rho.-nitrophenyl-β-D-glucoside (.rho.NPG) as the substrate, the reaction mixture of 1.2 ml contained 0.3 ml of appropriately diluted enzyme solution, 0.6 ml of 50 mM sodium phosphate buffer, pH 6.0, and 0.3 ml of 12 mM .rho.NPG. The reaction was carried out for 10 min at 40° C. and stopped by the addition of 2.4 ml of 1M Na2 CO3. The liberated .rho.-nitrophenol was measured spectrophotometrically at 405 nm [Herr et al. (1978) Appl. Microbiol. Biotechnol. 5:29-36; Chen et al. (1992) Biochem. Biophys. Acta. 1121:54-60]. Cellobiase activity was determined by using a reaction mixture of 2 ml containing 1 ml of appropriately diluted enzyme solution in 50 mM sodium phosphate buffer, pH 6.0, and 1 ml of 2 mM cellobiose. The reaction was carried out at 40° C. for 30 min and was stopped by placing the assay tubes in boiling water for 5 min. Liberated glucose was measured with a glucose determination kit (Sigma Chemical Co., St. Louis, Mo.) according to the manufacturer's instructions. One unit of β-glucosidase or cellobiase activity is defined as the amount of enzyme required to hydrolyze 1 μmole of substrate per min. Specific activity is expressed as unit per milligram of protein. […]

Substrate in series [10]: OC[C@H]1O[C@@H](O[C@H]2[C@H](O)[C@@H](O)C(O)O[C@@H]2CO)[C@H](O)[C@@H](O)[C@@H]1O
The series is described as above. To be noted: other: 40° C. and pH 6.0. In kind it is biochemical, Orpinomyces sp. strain PC-2. How it is done:
as §1

Substrate in series [11]: O=[N+]([O-])c1ccc(O[C@@H]2O[C@H](CO)[C@@H](O)[C@H](O)[C@H]2O)cc1
The description is as above. To be noted: other: 40° C. and pH 6.0. It counts as biochemical, Orpinomyces sp. strain PC-2. How it is done:
as §1

The mark [12] stands for this setting: read-out: Cellobiose affinity (Km).
Where [13] appears, read: read-out: Glucose inhibition (Ki).

Read-outs that look alike come from different tables or passages of the source.

In general, Km refers to the substrate concentration at which the rate is half of its maximum. As for `OC[C@H]1O[C@@H](O[C@H]2[C@H](O)[C@@H](O)C(O)O[C@@H]2CO)[C@H](O)[C@@H](O)[C@@H]1O` (stereo partly drawn) [Cellobiose, cellobiose (β-1,4-glucobiose)], the Michaelis constant (Km) in series [1] (setting [12]) was 19000 µM; in series [2] (setting [12]), 250 µM; in [3] (setting [12]), 2100 µM; in series [4] (setting [12]), 1000 µM; in series [5] it was 890 µM; in series [6] (setting [12]) it was 5650 µM. The Km in series [7] is 77000 µM; in [8] (setting [12]) it was 830 µM.
One may read the Ki as a dissociation constant, usually derived from enzyme kinetics or from competition with a known ligand. For the molecule `OC[C@H]1OC(O)[C@H](O)[C@@H](O)[C@@H]1O` (stereo partly shown) [Glucose], the Ki is 420 µM in series [1] (setting [13]); 8750 µM in [2] (setting [13]); 620 µM in series [3] (setting [13]); 5480 µM in [4] (setting [13]); 1000 µM in series [6] (setting [13]); 500 µM in series [8] (setting [13]). For the same molecule, the Ki in series [9] was found to be 3600 µM.
Consider `O=C1O[C@H](CO)[C@@H](O)[C@H](O)[C@H]1O` [glucono-1,5-lactone, reference compound], for which, in [9] (competitive inhibition, pNPG and cellobiose as substrates, read-out: Ki of glucono-1,5-lactone), the inhibition constant (Ki) turned out to be 50 µM.
As for `O=[N+]([O-])c1ccc(O[C@@H]2O[C@H](CO)[C@@H](O)[C@H](O)[C@H]2O)cc1` [pNPG, .rho.-nitrophenyl-β-D-glucoside, reference compound], in series [2] (read-out: Km (pNPG as substrate)), the Km is 350 µM.

B1: Orpinomyces sp. strain PC-2 β-glucosidase BglA, recombinant, secreted from S. cerevisiae, SEQ ID NO:2 (Orpinomyces sp. PC-2) (protein)
chain: T1 sequence (Q9UUQ3 17-657)
Consider B1, for which the Km was 310 µM in [10] and 762 µM in [11].
